Results reported in ChEMBL document CHEMBL4229486, “Design and synthesis of novel thiadiazole-thiazolone hybrids as potential inhibitors of the human mitotic kinesin Eg5” (Bioorg Med Chem Lett, 2018).
Calls of active or inactive are those of the source. The calls are words filed in the database; no cut-off is given here.

How the values were obtained:
[1] = target: T1, Kinesin-like protein KIF11 (Homo sapiens) (UniProt P52732); test: Inhibition of basal EG5 ATPase activity (unknown origin) by pyruvate kinase/lactate dehydrogenase enzyme coupled photometric assay
T1 sequence (whole entry): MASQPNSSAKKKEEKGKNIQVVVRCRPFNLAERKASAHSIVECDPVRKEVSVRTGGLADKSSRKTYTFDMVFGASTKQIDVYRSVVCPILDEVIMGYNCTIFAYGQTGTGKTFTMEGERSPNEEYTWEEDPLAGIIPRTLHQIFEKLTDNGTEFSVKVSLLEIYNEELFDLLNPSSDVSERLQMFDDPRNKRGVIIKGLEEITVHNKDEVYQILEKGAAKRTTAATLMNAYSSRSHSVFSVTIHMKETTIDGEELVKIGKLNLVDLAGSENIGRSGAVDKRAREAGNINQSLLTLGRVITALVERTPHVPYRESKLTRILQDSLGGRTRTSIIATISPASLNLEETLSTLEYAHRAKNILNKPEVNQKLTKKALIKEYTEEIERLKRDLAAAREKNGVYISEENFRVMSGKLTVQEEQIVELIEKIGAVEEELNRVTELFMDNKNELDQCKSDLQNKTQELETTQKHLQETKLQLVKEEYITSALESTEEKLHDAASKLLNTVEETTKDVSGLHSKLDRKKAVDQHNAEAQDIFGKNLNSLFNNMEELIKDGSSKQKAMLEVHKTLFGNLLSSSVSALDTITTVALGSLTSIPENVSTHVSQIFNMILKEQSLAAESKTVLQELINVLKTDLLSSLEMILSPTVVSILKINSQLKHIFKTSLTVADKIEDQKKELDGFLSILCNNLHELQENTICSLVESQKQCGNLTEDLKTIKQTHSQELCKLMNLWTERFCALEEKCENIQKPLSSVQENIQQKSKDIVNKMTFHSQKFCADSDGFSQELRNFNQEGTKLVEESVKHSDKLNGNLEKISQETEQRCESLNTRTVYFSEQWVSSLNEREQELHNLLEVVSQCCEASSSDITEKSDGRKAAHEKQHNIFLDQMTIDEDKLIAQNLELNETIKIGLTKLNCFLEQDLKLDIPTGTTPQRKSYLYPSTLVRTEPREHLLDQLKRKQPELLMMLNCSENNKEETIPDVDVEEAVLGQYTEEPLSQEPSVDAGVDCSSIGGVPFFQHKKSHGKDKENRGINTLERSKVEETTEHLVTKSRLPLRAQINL

[2] = target: T2, Kinesin-like protein KIF11 (Homo sapiens, UniProt P52732); test: Inhibition of MT-stimulated EG5 ATPase activity (unknown origin) by pyruvate kinase/lactate dehydrogenase enzyme coupled photometric assay
T2 sequence (P52732 whole entry): T1 sequence (whole entry)

[3] = target: T2, Kinesin-like protein KIF11; test: Inhibition EG5 (unknown origin)

| Compound | inhibition [1] | IC50 ([2]; read-out: IC50) [µM] | IC50 [3] [µM] | IC50 [2] |
| --- | --- | --- | --- | --- |
| COc1cccc(/C=C2\SC(NC3=NN(C(C)=O)C(C)(c4ccccc4)S3)=NC2=O)c1 (configuration not stated) | inactive | 51 |  |  |
| CC(=O)C1=NN(c2cc(C)ccc2F)C[C@]1(CCCN(C)C)c1ccccc1 |  |  | 0.0002 |  |
| CC(=O)N1N=C(NC2=NC(=O)/C(=C/c3ccco3)S2)SC1(C)c1ccccc1 (configuration not stated) | inactive | 120 to 331 |  |  |
| CC(=O)N1N=C(NC2=NC(=O)/C(=C/c3ccc(Cl)cc3)S2)SC1(C)c1ccccc1 (configuration not stated) | inactive | 106 |  |  |
| CC(=O)N1N=C(NC2=NC(=O)/C(=C/c3ccccc3Cl)S2)SC1(C)c1ccccc1 (configuration not stated) | inactive | 13.2 |  |  |
| CC(=O)N1N=C(NC2=NC(=O)/C(=C/c3ccc([N+](=O)[O-])cc3)S2)SC1(C)c1ccccc1 (configuration not stated) | inactive | 20.2 |  |  |
| CC(=O)N1N=C(NC2=NC(=O)/C(=C/c3ccc(N(C)C)cc3)S2)SC1(C)c1ccccc1 (configuration not stated) | inactive | 90 to 252 |  |  |
| CC(=O)N1N=C(NC2=NC(=O)/C(=C/c3ccccc3F)S2)SC1(C)c1ccccc1 (configuration not stated) | inactive | 70 to 133 |  |  |
| COc1ccc(/C=C2\SC(NC3=NN(C(C)=O)C(C)(c4ccccc4)S3)=NC2=O)cc1OC (configuration not stated) | inactive | 60 to 112 |  |  |
| CC(=O)N1N=C(NC2=NC(=O)/C(=C/c3ccccc3)S2)SC1(C)c1ccccc1 (configuration not stated) | inactive | 62.1 |  |  |
| CC(=O)N1N=C(NC2=NC(=O)/C(=C/c3cccs3)S2)SC1(C)c1ccccc1 (configuration not stated) | inactive | 133 |  |  |
| CC(=O)NC1=NN(C(C)=O)C(C)(c2ccccc2)S1 (configuration not stated) |  | 0.8 |  |  |
| CC1=C(C(=O)OC(C)C)C(c2ccc(Cl)cc2)n2c(s/c(=C\c3ccc(OCC(=O)O)cc3)c2=O)=N1 (configuration not stated) |  |  | 4.6 |  |
| CC(=O)N1N=C(NC2=NC(=O)/C(=C/c3ccccc3[N+](=O)[O-])S2)SC1(C)c1ccccc1 (configuration not stated) |  |  |  | Active |
| CC(=O)N1N=C(NC2=NC(=O)/C(=C/c3ccc(Br)cc3)S2)SC1(C)c1ccccc1 (configuration not stated) | inactive | 39.2 |  |  |
| CC(=O)N1N=C(NC2=NC(=O)/C(=C/C=C/c3ccc(N(C)C)cc3)S2)SC1(C)c1ccccc1 (configuration not stated) | inactive | 129 |  |  |
| CC(=O)N1N=C(NC2=NC(=O)/C(=C/c3ccccn3)S2)SC1(C)c1ccccc1 (configuration not stated) | inactive | 120 |  |  |
| CC(=O)N1N=C(NC2=NC(=O)/C(=C/C=C/c3ccccc3)S2)SC1(C)c1ccccc1 (configuration not stated) | inactive | 75 to 248 |  |  |

Continued, values first:

| inhibition [1] | IC50 ([2]; read-out: IC50) [µM] | IC50 [3] [µM] | IC50 [2] | Compound |
| --- | --- | --- | --- | --- |
| inactive | 42.7 |  |  | COc1ccc(/C=C2\SC(NC3=NN(C(C)=O)C(C)(c4ccccc4)S3)=NC2=O)cc1 (configuration not stated) |
| inactive | 90 to 414 |  |  | COc1ccc(/C=C/C=C2\SC(NC3=NN(C(C)=O)C(C)(c4ccccc4)S3)=NC2=O)cc1 (configuration not stated) |
| inactive | 17.2 |  |  | CC(=O)N1N=C(NC2=NC(=O)/C(=C/c3ccc(OCc4ccccc4)cc3)S2)SC1(C)c1ccccc1 (configuration not stated) |
| inactive | 71.9 |  |  | COc1cccc(/C=C2\SC(NC3=NN(C(C)=O)C(C)(c4ccccc4)S3)=NC2=O)c1OC (configuration not stated) |
| inactive | 63.3 |  |  | CC(=O)N1N=C(NC2=NC(=O)/C(=C/c3ccc(C)cc3)S2)SC1(C)c1ccccc1 (configuration not stated) |
| inactive | 27.5 |  |  | CC(=O)N1N=C(NC2=NC(=O)/C(=C/c3cccc([N+](=O)[O-])c3)S2)SC1(C)c1ccccc1 (configuration not stated) |
|  |  | 0.007 |  | CCNCCS(=O)(=O)NC[C@@]1(c2ccccc2)SC(NC(=O)C(C)(C)C)=NN1C(=O)C(C)(C)C [LITRONESIB] |
| inactive | 47.8 |  |  | CC(=O)N1N=C(NC2=NC(=O)/C(=C/c3cccc(Cl)c3)S2)SC1(C)c1ccccc1 (configuration not stated) |
